Measurements: paper PMC3961306, “Comparison of the Cancer Gene Targeting and Biochemical Selectivities of All Targeted Kinase Inhibitors Approved for Clinical Use” (PLoS ONE, 2014)
Like-named read-outs stand apart in the source and are kept apart here.

Experiments:
[1] = tested on: forty-four human cancer cell lines; experiment: Cell proliferation assay (ATPlite, 72 hours) in the 44 cell line Oncolines panel; format: cell-based; conditions: Homo sapiens
[2] = molecular target: panel of more than 300 wild-type and mutant kinases (313 kinase panel) (Homo sapiens, UniProt Q9H1R3); experiment: Kinase profiling in a biochemical assay panel (mobility shift assays and ELISA), %-inhibition at 1 μM; selectivity entropy
[3] = molecular target: panel of more than 300 wild-type and mutant kinases (313 kinase panel) (Homo sapiens, UniProt Q9H2G2); experiment: as above
[4] = molecular target: panel of more than 300 wild-type and mutant kinases (313 kinase panel) (Homo sapiens, UniProt Q16288); experiment: as above
[5] = molecular target: panel of more than 300 wild-type and mutant kinases (313 kinase panel) (Homo sapiens, UniProt Q13177); experiment: as above
[6] = molecular target: panel of more than 300 wild-type and mutant kinases (313 kinase panel) (Homo sapiens, UniProt Q15303); experiment: as above
[7] = molecular target: T1, panel of more than 300 wild-type and mutant kinases (313 kinase panel) (Homo sapiens, UniProt O14920); experiment: as above
T1 sequence (O14920 1-756): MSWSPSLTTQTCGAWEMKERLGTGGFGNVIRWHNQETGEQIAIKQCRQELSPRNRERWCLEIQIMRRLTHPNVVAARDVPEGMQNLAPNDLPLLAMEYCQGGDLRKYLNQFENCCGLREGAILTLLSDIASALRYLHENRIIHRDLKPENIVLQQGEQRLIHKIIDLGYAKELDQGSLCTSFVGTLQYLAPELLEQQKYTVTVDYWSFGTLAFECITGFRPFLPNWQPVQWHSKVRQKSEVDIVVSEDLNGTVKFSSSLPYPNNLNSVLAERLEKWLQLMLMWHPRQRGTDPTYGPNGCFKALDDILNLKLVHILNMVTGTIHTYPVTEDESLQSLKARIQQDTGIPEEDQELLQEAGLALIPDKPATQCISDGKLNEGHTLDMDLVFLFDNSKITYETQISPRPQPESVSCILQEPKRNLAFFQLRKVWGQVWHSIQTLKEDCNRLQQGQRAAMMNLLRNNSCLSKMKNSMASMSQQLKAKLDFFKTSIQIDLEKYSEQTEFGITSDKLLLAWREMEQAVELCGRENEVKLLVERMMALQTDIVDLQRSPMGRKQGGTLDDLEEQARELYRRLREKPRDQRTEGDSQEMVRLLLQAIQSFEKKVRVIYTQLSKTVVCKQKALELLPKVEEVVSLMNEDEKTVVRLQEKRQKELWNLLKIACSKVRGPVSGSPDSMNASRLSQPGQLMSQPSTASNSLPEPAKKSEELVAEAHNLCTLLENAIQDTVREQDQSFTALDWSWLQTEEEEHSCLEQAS

[8] = molecular target: T2, panel of more than 300 wild-type and mutant kinases (313 kinase panel) (Homo sapiens, UniProt Q96PF2); experiment: as above
T2 sequence (Q96PF2 1-358): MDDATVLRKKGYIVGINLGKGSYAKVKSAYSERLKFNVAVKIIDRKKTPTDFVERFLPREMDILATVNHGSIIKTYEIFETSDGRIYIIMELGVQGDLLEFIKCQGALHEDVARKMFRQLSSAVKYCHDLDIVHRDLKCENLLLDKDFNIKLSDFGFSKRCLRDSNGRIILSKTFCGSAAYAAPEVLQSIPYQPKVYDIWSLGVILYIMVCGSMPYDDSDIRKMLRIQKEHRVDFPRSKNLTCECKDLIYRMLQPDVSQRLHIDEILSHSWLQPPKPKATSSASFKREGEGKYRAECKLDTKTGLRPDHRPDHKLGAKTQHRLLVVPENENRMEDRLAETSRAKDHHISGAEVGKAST

[9] = molecular target: panel of more than 300 wild-type and mutant kinases (313 kinase panel) (Homo sapiens, UniProt O95819); experiment: as above
[10] = molecular target: panel of more than 300 wild-type and mutant kinases (313 kinase panel) (Homo sapiens, UniProt P29376); experiment: as above
[11] = 4-4 cell, read-out: cell panel IC50, J82
[12] = 4-4 cell, read-out: cell panel IC50, PA-1
[13] = 4-4 cell, read-out: cell panel IC50, SJCRH30
[14] = 4-4 cell, read-out: cell panel IC50, SR
[15] = 769-P, read-out: cell panel IC50, 769-P
[16] = 786-0, read-out: cell panel IC50, 786-0
[17] = A 172, read-out: cell panel IC50, A-172
[18] = A204, read-out: cell panel IC50, A-204
[19] = A498, read-out: cell panel IC50, A-498
[20] = A-375, read-out: cell panel IC50, A375
[21] = ACHN, read-out: cell panel IC50, ACHN
[22] = AN3-CA, read-out: cell panel IC50, AN3 CA
[23] = AU565, read-out: cell panel IC50, AU-565
[24] = BT-20, read-out: cell panel IC50, BT-20
[25] = BXPC-3, read-out: cell panel IC50, BxPC-3
[26] = C-33-A, read-out: cell panel IC50, C-33 A
[27] = CAL-27, read-out: cell panel IC50, CAL 27
[28] = CCRF-CEM, read-out: cell panel IC50, CCRF-CEM
[29] = DLD-1, read-out: cell panel IC50, DLD-1
[30] = FaDu, read-out: cell panel IC50, FaDu
[31] = HCT-15, read-out: cell panel IC50, HCT-15
[32] = HCT-116, read-out: cell panel IC50, HCT-116
[33] = Hs-578T, read-out: cell panel IC50, Hs 578T
[34] = Jurkat E6.1, read-out: cell panel IC50, Jurkat E6.1
[35] = K562, read-out: cell panel IC50, K-562
[36] = LS174T, read-out: cell panel IC50, LS 174T
[37] = LoVo, read-out: cell panel IC50, LoVo
[38] = MG-63, read-out: cell panel IC50, MG-63
[39] = MOLT-4, read-out: cell panel IC50, MOLT-4
[40] = MeWo, read-out: cell panel IC50, MeWo
[41] = NCI-H82, read-out: cell panel IC50, NCI-H82
[42] = NCI-H460, read-out: cell panel IC50, NCI-H460
[43] = OVCAR-3, read-out: cell panel IC50, OVCAR-3
[44] = RPMI-7951, read-out: cell panel IC50, RPMI-7951
[45] = SHP77, read-out: cell panel IC50, SHP-77
[46] = SK-N-AS, read-out: cell panel IC50, SK-N-AS
[47] = SW48, read-out: cell panel IC50, SW48
[48] = SW480, read-out: cell panel IC50, SW480
[49] = SW-620, read-out: cell panel IC50, SW620
[50] = U2OS, read-out: cell panel IC50, U-2 OS
[51] = U-87 MG, 72 h, read-out: IC50 in cell proliferation assay (table S5 cellpanel data)

panel of more than 300 wild-type and mutant kinases (313 kinase panel) (Homo sapiens, UniProt Q15303), sequence (Q15303 26-1308, change not shown): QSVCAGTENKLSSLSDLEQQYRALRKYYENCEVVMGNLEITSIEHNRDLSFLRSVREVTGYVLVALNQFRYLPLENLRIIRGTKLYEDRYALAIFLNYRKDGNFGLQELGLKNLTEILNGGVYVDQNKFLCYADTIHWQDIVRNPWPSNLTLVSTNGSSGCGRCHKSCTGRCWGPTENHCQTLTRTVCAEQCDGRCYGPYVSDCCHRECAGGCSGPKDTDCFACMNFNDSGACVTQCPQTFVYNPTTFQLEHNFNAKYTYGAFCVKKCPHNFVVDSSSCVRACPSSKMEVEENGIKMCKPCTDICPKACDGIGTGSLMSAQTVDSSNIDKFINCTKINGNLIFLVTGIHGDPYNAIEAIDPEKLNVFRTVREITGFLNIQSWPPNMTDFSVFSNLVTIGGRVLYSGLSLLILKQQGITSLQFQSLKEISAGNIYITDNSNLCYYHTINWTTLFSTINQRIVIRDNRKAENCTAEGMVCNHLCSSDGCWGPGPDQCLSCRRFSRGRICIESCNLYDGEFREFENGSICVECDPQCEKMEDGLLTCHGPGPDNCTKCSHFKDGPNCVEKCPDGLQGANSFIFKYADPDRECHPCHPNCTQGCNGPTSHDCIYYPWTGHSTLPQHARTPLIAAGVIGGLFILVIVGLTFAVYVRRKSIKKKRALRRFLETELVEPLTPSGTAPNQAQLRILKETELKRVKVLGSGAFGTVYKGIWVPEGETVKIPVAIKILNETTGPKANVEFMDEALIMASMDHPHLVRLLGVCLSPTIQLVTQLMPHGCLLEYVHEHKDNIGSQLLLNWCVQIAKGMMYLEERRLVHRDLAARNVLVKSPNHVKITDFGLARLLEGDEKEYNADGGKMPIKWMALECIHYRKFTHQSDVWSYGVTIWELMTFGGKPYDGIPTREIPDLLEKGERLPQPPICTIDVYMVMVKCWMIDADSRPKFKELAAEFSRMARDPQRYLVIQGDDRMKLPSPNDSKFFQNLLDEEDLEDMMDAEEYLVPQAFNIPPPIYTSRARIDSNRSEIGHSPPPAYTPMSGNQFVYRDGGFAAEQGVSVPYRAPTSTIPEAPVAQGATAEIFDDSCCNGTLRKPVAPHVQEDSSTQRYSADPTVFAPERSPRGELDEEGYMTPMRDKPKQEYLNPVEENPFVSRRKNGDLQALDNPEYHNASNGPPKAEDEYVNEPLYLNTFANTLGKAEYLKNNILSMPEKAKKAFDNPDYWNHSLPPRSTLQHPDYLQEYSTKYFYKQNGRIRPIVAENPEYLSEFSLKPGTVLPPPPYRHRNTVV

COc1cc2nccc(Oc3ccc(NC(=O)C4(C(=O)Nc5ccc(F)cc5)CC4)cc3)c2cc1OC [cabozantinib] showed an IC50 [1, 11] of 22.9 µM, an IC50 [1, 12] of 17.8 µM and an IC50 [1, 13] of 15.2 µM. For the same molecule, the IC50 [1, 14] was 24.5 µM, the IC50 [1, 15] was 30 µM and the IC50 [1, 16] was 28.7 µM. It also gave an IC50 [1, 17] of 14.6 µM, an IC50 [1, 18] of 0.082 µM and an IC50 [1, 19] of 24.1 µM. For the same molecule, the IC50 ([1]; A549, read-out: cell panel IC50, A-549) was 18.5 µM, the IC50 [1, 20] was > 31.6 µM and the IC50 ([1]; A-427, read-out: cell panel IC50, A-427) was 14.3 µM. For the same molecule, the IC50 [1, 21] was 20.9 µM, the IC50 [1, 22] was 6.03 µM and the IC50 [1, 23] was 20.1 µM. The IC50 [1, 24] was > 31.6 µM, the IC50 ([1]; BT-549, read-out: cell panel IC50, BT-549) was 30.3 µM and the IC50 [1, 25] was 24.1 µM. For the same molecule, the IC50 [1, 26] was 19.7 µM, the IC50 [1, 27] was 23.4 µM and the IC50 [1, 28] was 19.5 µM. The IC50 [1, 29] was 22.7 µM, the IC50 [1, 30] was > 31.6 µM and the IC50 [1, 31] was 21.9 µM. For the same molecule, the IC50 [1, 32] was 20.9 µM, the IC50 [1, 33] was 24.2 µM and the IC50 [1, 34] was 11.5 µM. For the same molecule, the IC50 [1, 35] was 3.94 µM, the IC50 [1, 36] was > 31.6 µM and the IC50 [1, 37] was 7.63 µM. It also gave an IC50 [1, 38] of 15.6 µM, an IC50 [1, 39] of 12.1 µM and an IC50 [1, 40] of 29.8 µM. For the same molecule, the IC50 [1, 41] was 16.8 µM, the IC50 [1, 42] was 28.1 µM and the IC50 [1, 43] was > 31.6 µM. The IC50 [1, 44] was 14.9 µM, the IC50 [1, 45] was > 31.6 µM and the IC50 [1, 46] was 31 µM. The IC50 [1, 47] was 12.5 µM, the IC50 [1, 48] was 16.2 µM and the IC50 [1, 49] was 6.24 µM. For the same molecule, the IC50 [1, 50] was 19.3 µM, the IC50 [1, 51] was 22.3 µM and the “%-inhibition of skMLCK” value ([2]; kinase skMLCK, 1 μM) was 12%. The “%-inhibition of SLK” value ([3]; kinase SLK, 1 μM) was 52%, the “%-inhibition of TRKC” value ([4]; kinase TRKC, 1 μM) was 98% and the “%-inhibition of PAK2” value ([5]; kinase PAK2, 1 μM) was -5.44%. For the same molecule, the “%-inhibition of HER4” value ([6]; kinase HER4, compound at 1 μM) was 23%, the “%-inhibition of IKKβ” value ([7]; kinase IKKβ, compound at 1 μM) was -2.35% and the “%-inhibition of TSSK2” value ([8]; kinase TSSK2, 1 μM) was 0.418%. For the same molecule, the “%-inhibition of HGK” value ([9]; kinase HGK, compound at 1 μM) was 21% and the “%-inhibition of LTK” value ([10]; kinase LTK, compound at 1 μM) was 61%.

C#Cc1cccc(Nc2ncnc3cc(OCCOC)c(OCCOC)cc23)c1 [erlotinib] was tested, and the IC50 [1, 11] was 4.54 µM, the IC50 [1, 12] was 4.07 µM and the IC50 [1, 13] was > 31.6 µM. For the same molecule, the IC50 [1, 14] was 4.23 µM, the IC50 [1, 15] was 20.2 µM and the IC50 [1, 16] was 6.13 µM. For the same molecule, the IC50 [1, 17] was > 31.6 µM, the IC50 [1, 18] was 5.16 µM and the IC50 [1, 19] was 4.97 µM. It also gave an IC50 [1, 20] of 5.05 µM, an IC50 [1, 21] of 1.37 µM and an IC50 [1, 22] of 4.29 µM. The IC50 [1, 23] was 2.74 µM, the IC50 [1, 24] was > 31.6 µM and the IC50 [1, 25] was 4.21 µM. The IC50 [1, 26] was 0.865 µM, the IC50 [1, 27] was 0.256 µM and the IC50 [1, 28] was > 31.6 µM. For the same molecule, the IC50 [1, 29] was 3.87 µM, the IC50 [1, 30] was 1.16 µM and the IC50 [1, 31] was 6.31 µM. The IC50 [1, 32] was 8.12 µM, the IC50 [1, 33] was 7.12 µM and the IC50 [1, 34] was 22.6 µM. It also gave an IC50 [1, 35] of 7.05 µM, an IC50 [1, 36] of 3.27 µM and an IC50 [1, 37] of 2.24 µM. For the same molecule, the IC50 [1, 38] was 13.3 µM, the IC50 [1, 39] was 6.34 µM and the IC50 [1, 40] was 9.02 µM. For the same molecule, the IC50 [1, 41] was 20.1 µM, the IC50 [1, 42] was 5.53 µM and the IC50 [1, 43] was 5.46 µM. For the same molecule, the IC50 [1, 44] was > 31.6 µM, the IC50 [1, 45] was > 31.6 µM and the IC50 [1, 46] was 5.84 µM. For the same molecule, the IC50 [1, 47] was > 31.6 µM, the IC50 [1, 48] was > 31.6 µM and the IC50 [1, 49] was 6.41 µM. The IC50 [1, 50] was > 31.6 µM, the IC50 [1, 51] was > 31.6 µM and the “%-inhibition of skMLCK” value ([2]; 1 µM) was 19%. For the same molecule, the “%-inhibition of SLK” value ([3]; 1 µM) was 89%, the “%-inhibition of TRKC” value ([4]; 1 µM) was 13% and the “%-inhibition of PAK2” value ([5]; 1 µM) was 5%. The “%-inhibition of HER4” value ([6]; 1 µM) was 97%, the “%-inhibition of IKKβ” value ([7]; 1 µM) was 11% and the “%-inhibition of TSSK2” value ([8]; 1 µM) was 2%. The “%-inhibition of HGK” value ([9]; 1 µM) was 50% and the “%-inhibition of LTK” value ([10]; 1 µM) was 41%.
